Test results from publication PMC4973850, “Molecular structure‐function relationship of dietary polyphenols for inhibiting VEGF‐induced VEGFR‐2 activity” (Molecular Nutrition & Food Research, 2015).
Blank lines part the entries; values can stand above or below the compound they belong to.

Target: T1, VEGF (human recombinant VEGFA165); VEGF‐induced VEGFR‐2 activation in HUVECs (Homo sapiens, UniProt P15692)
T1 construct: purchased R&D Systems, Abingdon, UK
T1 sequence (P15692 1-191 isoform P15692-4): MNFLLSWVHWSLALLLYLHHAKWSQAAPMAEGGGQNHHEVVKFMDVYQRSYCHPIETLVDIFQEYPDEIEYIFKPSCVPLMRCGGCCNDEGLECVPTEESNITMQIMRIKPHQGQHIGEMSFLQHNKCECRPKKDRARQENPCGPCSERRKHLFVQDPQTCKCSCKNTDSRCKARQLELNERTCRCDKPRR
Assay: Inhibition of VEGF‐induced VEGFR‐2 phosphorylation in HUVECs after pre‐incubating VEGF with polyphenol (Phospho‐VEGFR‐2 Tyr1175 ELISA);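 also: sandwich ELISA of VEGFR-2 phosphorylated at Tyr1175 in lysates of confluent HUVECs, with VEGF alone and DMSO vehicle (≤0.1%) as control incubations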
Type: cell-based
Conditions: for Inhibition (%): HUVECs; for IC50 (μM) / IC50: VEGF 25 ng/mL pre‐incubated 5 min with polyphenol, then HUVECs 5 min, phospho‐VEGFR‐2 ELISA, 95% confidence intervals in parentheses

- Inhibition (%) (at 50 μM polyphenol): 66%
Structure (SMILES): O=C1c2ccc(O)cc2O[C@H](c2cc(O)c(O)c(O)c2)[C@H]1O [(+)‐Dihydrorobinetin]

- Inhibition (%) (at 50 μM polyphenol): 85%
Structure (SMILES): O=c1c(O)c(-c2ccccc2)oc2cc(O)cc(O)c12 [Galangin]

- IC50 (μM): 214.7 (178. 2–258.7) μM
- IC50 (listed as (+)‐catechin): 215000 nM
Structure (SMILES): Oc1cc(O)c2c(c1)O[C@H](c1ccc(O)c(O)c1)[C@@H](O)C2 [(+)‐Catechin]

- Inhibition (%) (at 100 μM polyphenol): 12.3 (100 μM) %
Structure (SMILES): O=C1c2c(O)cc(O)cc2O[C@H](c2ccc(O)c(O)c2)[C@H]1O [Taxifolin]

- Inhibition (%) (at 100 μM polyphenol): Ineffective (100 μM)
Structure (SMILES): COC(=O)c1cc(O)c(O)c(O)c1 [Methyl gallate]

- IC50 (μM): 9.341 (7.749–11.26) μM
Structure (SMILES): O=c1c(O)c(-c2ccc(O)cc2)oc2cc(O)cc(O)c12 [Kaempferol]

- Inhibition (%) (at 100 μM polyphenol): 63.2 (100 μM) %
Structure (SMILES): O=c1cc(-c2ccc(O)c(O)c2)oc2c(O)c(O)ccc12 [3′,4′,7,8‐tetrahydroxyflavone]

- IC50 (μM): 0.16 (0.150–0.183) μM
Structure (SMILES): O=C(O[C@@H]1Cc2c(O)cc(O)cc2O[C@@H]1c1ccc(O)c(O)c1)c1cc(O)c(O)c(O)c1 [ECG, epicatechin gallate]

- IC50 (μM): 7.46 (6.592–8.446) μM
Structure (SMILES): O=c1cc(-c2ccc(O)c(O)c2)oc2cc(O)cc(O)c12 [Luteolin]

- Inhibition (%) (at 100 μM polyphenol): 100 (100 μM) %
Structure (SMILES): COc1ccc(-c2oc3cc(O)cc(O)c3c(=O)c2O)cc1O [Tamarixetin]

- Inhibition (%) (at 50 μM polyphenol): 32%
Structure (SMILES): O=C(O)c1cc(O)c(O)c(O)c1 [Gallic acid]

- Inhibition (%) (at 50 μM polyphenol): 22%
Structure (SMILES): O=c1c(-c2ccc(O)cc2)coc2cc(O)cc(O)c12 [Genistein]

- Inhibition (%) (at 50 μM polyphenol): Ineffective
Structure (SMILES): O=C(O)/C=C/c1ccc(O)c(O)c1 [Caffeic acid]

- IC50 (μM): 0.547 (0.527–0.568) μM
Structure (SMILES): COc1cc(O)c2c(=O)c(O)c(-c3ccc(O)c(O)c3)oc2c1 [Rhamnetin]

- IC50 (μM): 3.311 (3.047–3.598) μM
- IC50 (listed as orobol): 3310 nM
- fold lower IC50 compared with luteolin (ratio of IC50 values): 2 fold
Structure (SMILES): O=c1c(-c2ccc(O)c(O)c2)coc2cc(O)cc(O)c12 [Orobol]

- Inhibition (%) (at 100 μM polyphenol): 88.5 (100 μM) %
Structure (SMILES): O=C1C[C@@H](c2ccc(O)cc2)Oc2cc(O)cc(O)c21 [Naringenin]

- IC50 (μM): 0.088 (0.078–0.100) μM
Structure (SMILES): O=C(O[C@@H]1Cc2c(O)cc(O)cc2O[C@@H]1c1cc(O)c(O)c(O)c1)c1cc(O)c(O)c(O)c1 [EGCG, epigallocatechin gallate]
- fold lower IC50 than ECG (ratio of IC50 values): 2 fold

- IC50: 1050 nM
- IC50 (μM): 1.053 (0.764–1.453) μM
- log IC50 (datapoint of Fig. 3B): 0.022
- fold lower IC50 compared with (+)‐catechin (ratio of IC50 values): 200 fold
Structure (SMILES): Oc1cc(O)c2cc(O)c(-c3ccc(O)c(O)c3)[o+]c2c1 [Cyanidin]

- Inhibition (%) (at 200 μM polyphenol (highest concentration tested)): Ineffective (200 μM)
- Inhibition (%) (at 200 μM polyphenol (highest concentration tested), listed as (−)‐epicatechin): not an inhibitor
- Inhibition (%) (at 200 μM polyphenol (highest concentration tested), listed as epicatechin): ineffective
Structure (SMILES): Oc1cc(O)c2c(c1)O[C@H](c1ccc(O)c(O)c1)[C@H](O)C2 [(−)‐Epicatechin]

The next lines start with the compound.

Structure (SMILES): O=c1c(O)c(-c2ccc(O)c(O)c2)oc2cc(O)cc(O)c12 [Quercetin]
- IC50 (μM): 0.754 (0.674–0.842) μM
- IC50 (listed as quercetin): 750 nM
- fold lower IC50 compared with (+)‐catechin (ratio of IC50 values): > 250 fold
- fold lower IC50 compared with luteolin (ratio of IC50 values): 10 fold

Structure (SMILES): O=c1cc(-c2ccccc2)oc2cc(O)cc(O)c12 [Chrysin]
- Inhibition (%) (at 100 μM polyphenol): 58.6 (100 μM) %

Structure (SMILES): COc1ccc(-c2cc(=O)c3c(OC)c(OC)c(OC)cc3o2)cc1OC [Sinensetin]
- Inhibition (%) (at 100 μM polyphenol): Ineffective (100 μM)
- Inhibition (%) (at 100 μM polyphenol, listed as sinensetin): inhefective

Structure (SMILES): OC[C@H]1O[C@@H](Oc2cc(O)cc(/C=C/c3ccc(O)cc3)c2)[C@H](O)[C@@H](O)[C@@H]1O [Piceid]
- Inhibition (%) (at 50 μM polyphenol): 28%

Structure (SMILES): O=C1C[C@@H](c2ccc(O)c(O)c2)Oc2cc(O)cc(O)c21 [Eriodictyol]
- Inhibition (%) (at 50 μM polyphenol): 20%

Structure (SMILES): O=c1c(O[C@@H]2O[C@H](CO)[C@@H](O)[C@H](O)[C@H]2O)c(-c2ccc(O)c(O)c2)oc2cc(O)cc(O)c12 [Hirsutrin]
- Inhibition (%) (at 50 μM polyphenol): Ineffective
- Inhibition (%) (at 50 μM polyphenol, listed as hirsutrin): completely ineffective

Structure (SMILES): COc1cc(-c2oc3cc(O)cc(O)c3c(=O)c2O)ccc1O [Isorhamnetin]
- IC50 (μM): 9.053 (7.676–10.68) μM
- fold higher IC50 than quercetin (ratio of IC50 values): 12 fold

Structure (SMILES): C[C@@H]1O[C@@H](Oc2c(-c3ccc(O)c(O)c3)oc3cc(O)cc(O)c3c2=O)[C@H](O)[C@H](O)[C@H]1O [Quercitrin]
- Inhibition (%) (at 50 μM polyphenol): Ineffective
- Inhibition (%) (at 50 μM polyphenol, listed as quercitrin): completely ineffective

Structure (SMILES): Oc1cc(O)c2c(c1)O[C@H](c1cc(O)c(O)c(O)c1)[C@H](O)C2 [EGC, epigallocatechin]
- IC50 (μM): 42.9 (36.96–49.97) μM

Structure (SMILES): O=c1c(O)c(-c2cc(O)c(O)c(O)c2)oc2cc(O)cc(O)c12 [Myricetin]
- IC50 (μM): 0.121(0.102–0.144) μM
- fold lower IC50 than EGC (ratio of IC50 values): > 300 fold

Structure (SMILES): O=c1cc(-c2ccccc2)oc2cc(O)ccc12 [7‐hydroxyflavone]
- Inhibition (%) (at 100 μM polyphenol): Ineffective (100 μM)

Structure (SMILES): O=c1c(O)c(-c2ccc(O)cc2O)oc2cc(O)cc(O)c12 [Morin]
- IC50 (μM): 1.482 (1.357–1.618) μM
- fold higher IC50 than quercetin (ratio of IC50 values): about 2 fold

Structure (SMILES): C[C@@H]1O[C@@H](OC[C@H]2O[C@@H](Oc3c(-c4ccc(O)c(O)c4)oc4cc(O)cc(O)c4c3=O)[C@H](O)[C@@H](O)[C@@H]2O)[C@H](O)[C@H](O)[C@H]1O [Rutin]
- Inhibition (%) (at 50 μM polyphenol): Ineffective
- Inhibition (%) (at 50 μM polyphenol, listed as rutin): completely ineffective

Structure (SMILES): O=C(/C=C/c1ccc(O)c(O)c1)O[C@@H]1C[C@](O)(C(=O)O)C[C@@H](O)[C@H]1O [Chlorogenic acid]
- Inhibition (%) (at 50 μM polyphenol): Ineffective

Structure (SMILES): O=c1c(O)c(-c2ccccc2)oc2ccccc12 [3‐hydroxyflavone]
- Inhibition (%) (at 100 μM polyphenol): 52.8 (100 μM) %

Structure (SMILES): O=c1c(O[C@@H]2O[C@H](CO)[C@H](O)[C@H](O)[C@H]2O)c(-c2ccc(O)c(O)c2)oc2cc(O)cc(O)c12 [Hyperoside]
- Inhibition (%) (at 50 μM polyphenol): Ineffective
- Inhibition (%) (at 50 μM polyphenol, listed as hyperoside): completely ineffective

Structure (SMILES): O=c1c(O)c(-c2ccc(O)c(O)c2)oc2cc(O)c(O)c(O)c12 [Quercetagetin]
- IC50 (μM): 0.096 (0.083–0.109) μM
- fold more potent VEGF inhibitor than quercetin (ratio of IC50 values): sevenfold

Structure (SMILES): O=c1cc(-c2ccccc2)oc2ccccc12 [Flavone]
- Inhibition (%) (at 100 μM polyphenol): Ineffective (100 μM)
- Inhibition (%) (at 100 μM polyphenol, listed as flavone): ineffective

Structure (SMILES): O=C(CCc1ccc(O)cc1)c1c(O)cc(O)cc1O[C@@H]1O[C@H](CO)[C@@H](O)[C@H](O)[C@H]1O [Phloridzin]
- Inhibition (%) (at 50 μM polyphenol): Ineffective
- Inhibition (%) (at 50 μM polyphenol, listed as phloridzin): completely ineffective
